Source: patent US6849633B2, “Pyrazole derivative, production process thereof, and pest control agent containing the same as active ingredient” (Nihon Nohyaku Co., Ltd., priority 1999, dated 2005)

Tests used:
Assay type in all cases: in vivo
[1] = tested on: larvae of brown rice planthopper (Nilaparvata lugens); test: Insecticidal effect on larvae of brown rice planthopper, rice roots in agent solution (systemic, Test Example 6); conditions: for Death Rate (%) at Each Concentration of Active Ingrediet: 4th day; for insecticidal activity through systemic property (in words): summary of root-uptake test against brown rice planthopper
Method: (§1) Insecticidal Effect on Larvae of Brown Rice Planthopper (Nilaparvata lugens)
Roots of young rice seedlings (height: about 10 cm) planted in a plastic cup were washed with water and soil was washed away so as not to damage the fine roots. The stem was pinched by a urethane tip (diameter: 3 cm, height: 2 cm) having a cut line and the roots were inserted into an Erlenmeyer flask to which 50 ml of an agent solution (an aqueous diluted solution of agricultural and horticultural insecticide of the invention prepared in accordance with Formulation Example 1) was placed beforehand (2 to 3 young rice seedlings/flask). The urethane tip was wedged into the mouse of the flask to fix the rice seedlings. A glass tube (diameter: 3 cm, height: 5 cm) was placed thereon, wedged into the urethane tip, and fixed with a tape. The flask in such state was kept in a constant temperature room at 25° C. for 3 days. Five larvae of brown rice planthopper were placed in the glass tube and then the tube was capped with a urethane tip, followed by keeping in the constant temperature room at 25° C. (duplicates at a concentration). The mortality and agony of the larvae were examined on 4th day after the treatment to obtain a death rate (%) taking an agonizing insect as a ½ dead insect. This test was carried out on three agent solutions different in the concentration of the active ingredient. The results are shown in Table 7 (the compound numbers in the table correspond to the numbers in Table 1).
As comparative compounds I to V, each compound having a structure shown below (Compound I described in Japanese Patent Laid-Open No. 316771/1988, Compounds II and III described in Examples of WO9845274, and Compounds IV and V included in the claim of WO9845274 but not included in the claim of the present application) was similarly subjected to the test. [drawing 36]
Brown rice planthopper (Nilaparvata lugens) is a highly problematic pest insect species which is harmful as described in Test Example 1, but a sufficient effect can not be attained by the application method of spraying an agent to stems and leafs, provided that the detection is delayed or that an enough amount of the agent is not spread to the roots.
Since this insect species has a characteristic of making its habitat around the roots of rice plant or the like and harming the plant through sucking fluid, more efficient method of controlling the insect may be a method of treating the surface of soil with an agent (granule treatment) before the outbreak of the species occurs widely. However, in order to attain a high controlling effect, a systemic property (a penetrating and migrating property) into a plant body is required as the nature of the agent.

Oryzias latipes = test: Test on toxicity to fish using Oryzias latipes (Test Example 7); conditions: death rate, 0.5 ppm aqueous solution, adult Oryzias latipes, after 48 hours
Method: Test on Toxicity to Fish Using Oryzias latipes
This test example is one example for examining safety of agricultural and horticultural insecticides to the environment.
Ten mg of each compound was dissolved in 1 ml of dimethyl sulfoxide and a 0.05 ml portion thereof was added to a glass beaker containing 1 liter of distilled water to obtain a 0.5 ppm aqueous solution. Into the aqueous solution was put five fishes of Oryzias latipes (adult, average weight: about 360 mg) and the mortality was examined after 48 hours to calculate a death rate (%) (5 fishes per 1 lot/beaker, single run). The results are shown in Table 8 (the compound numbers in the table correspond to the numbers in Table 1).
Similar to Test Example 6, Compound I described in Japanese Patent Laid-Open No. 316771/1988, Compounds II and III described in Examples of WO9845274, and Compounds IV and V included in the claim of WO9845274 but not included in the claim of the present application were subjected to the test, as comparative compounds.

[2] = tested on: larvae of brown rice planthopper (Nilaparvata lugens); test: Insecticidal effect on larvae of brown rice planthopper (spray, Test Example 1); conditions: 500 ppm, emulsion sprayed, 4th instar larvae, 25° C., after 5 days; agonizing insect counted as 1/2 dead
Method: as §1
A rice seedling was planted in a glass cylinder (inner diameter: 3 cm×length: 17 cm), and five 4th instar larvae of brown rice planthopper were set free therein. An agricultural and horticultural insecticide of the invention was prepared in accordance with Formulation Example 3 and diluted with water, and 0.5 ml of the resulting emulsion was sprayed into the cylinder by means of a spraying tower (manufactured by Mizuho Rika) (duplicates at a concentration). The cylinder was kept in a constant temperature room at 25° C., and the mortality and agony of the larvae were examined after 5 days from the treatment to obtain a death rate (%) taking an agonizing insect as a ½ dead insect. The results obtained are shown in Table 2 (the compound numbers in Table 2 correspond to the numbers in Table 1).

[3] = tested on: larvae of diamond back moth (Plutella xylostella); test: Insecticidal effect on larvae of diamond back moth (leaf disc, Test Example 2); conditions: 500 ppm, cabbage leaf disc soaked 1 minute, 3-instar larvae, 25° C., after 4 days
Method: Insecticidal Effect on Larvae of Diamond Back Moth (Plutella xylostella)
(§2) A disc (6 cm in diameter) cut out of a cabbage leaf was soaked for 1 minute in an aqueous suspension of the agricultural and horticultural insecticide of the invention prepared in accordance with Formulation Example 1, air-dried, and placed in a plastic cup (inner diameter: 7 cm). Five 3-instar larvae of Plutella xylostella were set free in the cup (duplicates at a concentration). The cup was kept in a constant temperature room at 25° C., and the death and agony of the larvae were examined after 4 days from the treatment to obtain a death rate (%) taking an agonizing insect as a ½ dead insect. The results obtained are shown in Table 3 (the compound numbers in the Table below correspond to the numbers in Table 1).

[4] = tested on: imagoes of adzuki bean weevil (Callosobruchus chinensis); test: Insecticidal effect on imagoes of adzuki bean weevil (spray, Test Example 4); conditions: 500 ppm, emulsion sprayed, 25° C., after 4 days
Method: Insecticidal Effect on Imagoes of Adzuki Bean Weevil (Callosobruchus chinensis)
Two adzuki beans were put in a glass cylinder (inner diameter: 3 cm×length: 15 cm), and 10 imagoes of Callosobruchus chinensis were set free therein. An agricultural and horticultural insecticide of the invention was prepared in accordance with Formulation Example 3 and diluted with water, and 0.3 ml of the resulting emulsion was sprayed in the glass cylinder by means of a spray tower (manufactured by Mizuho Rika) (duplicates at a concentration). The cylinder was kept in a constant temperature room at 25° C., and the mortality and agony of the larvae were examined after 4 days from the treatment to obtain a death rate (%) taking an agonizing insect as a ½ dead insect. The results obtained are shown in Table 5 (the compound numbers in the Table correspond to the numbers in Table 1).

[5] = tested on: larvae of green peach aphid (Myzus persicae); test: Insecticidal effect on larvae of green peach aphid (leaf dip, Test Example 5); conditions: 500 ppm, leaves dipped about 5 seconds, 25° C., 4th day after treatment
Method: Insecticidal Effect on Larvae of Green Peach Aphid (Myzus persicae)
Water was put in a screw bottle (volume: 10 ml), and a leafstalk of Japanese radish was placed therein and inoculated with 5 to 6 imagoes of Myzus persicae per leave. After the inoculation, the bottle was put in a glass cylinder (diameter: […]; height: 15 cm) with a mesh cover, and the insects were let to proliferate in a constant temperature room kept at 25° C. for 3 days. The imagoes on the leaves were removed, and the leaves were dipped in an aqueous dilusion of an agricultural and horticultural insecticide prepared of the invention in accordance with Formulation Example 3 for about 5 seconds and then returned into the glass cylinder (duplicates at a concentration). The cylinder was kept in the constant temperature room at 25° C., and the number of the insects on the leaves was counted on the 4th day after the treatment to obtain a death rate (%). The results obtained are shown in Table 6 (the compound numbers in the Table correspond to the numbers in Table 1).

[6] = tested on: larvae of common cutworm (Spodoptera litura); test: Insecticidal effect on larvae of common cutworm (leaf disc, Test Example 3); conditions: 500 ppm, cabbage leaf disc soaked 1 minute, 3-instar larvae, 25° C., after 5 days
Method: Insecticidal Effect on Larvae of Common Cutworm (Spodoptera litura)
as §2, with “suspension of an agricultural and” for “suspension of the agricultural and”, “larvae of Spodoptera litura were set” for “larvae of Plutella xylostella were set”, “examined after 5 days from” for “examined after 4 days from”, “in Table 4 (the compound” for “in Table 3 (the compound”

cat flea = test: Insecticidal effect on cat flea (treated filter, Test Example 8); conditions: 0.7 mg/filter; mortality examined on 1st day and 2nd day after treatment
Excerpt: Insecticidal Effect on Cat Flea
After drying, the filter was placed on the bottom of a cylinder (diameter: 10 cm×height: 30 cm). Ten fleas were set free therein and the mortality was examined on 1st day and 2nd day after the treatment to calculate a death rate (%) based on the results. The results are shown in Table 9 (the compound numbers in the table correspond to the numbers in Table 1).

[7] = 0.8 ppm agent solution at rice roots
[8] = 3.1 ppm agent solution at rice roots
[9] = 0.2 ppm agent solution at rice roots

Compound	Death Rate (%) at Each Concentration of Active Ingrediet [1, 7] [%]	Death Rate (%) at Each Concentration of Active Ingrediet [1, 8] [%]	insecticidal activity through systemic property (in words) [1]	Toxicity to fish (%) (Oryzias latipes)	Death Rate (%) [2] [%]	Death Rate (%) [3] [%]	Death Rate (%) [4] [%]	Death Rate (%) [5] [%]	Death Rate (%) at Each Concentration of Active Ingrediet [1, 9] [%]	Death Rate (%) [6] [%]	Death Rate (%) (cat flea)
N#Cc1nn(-c2c(Cl)cc(C(F)(F)F)cc2Cl)c(NCc2ccncc2)c1SC(F)(F)F [II]	20	50	obviously inferior effect	80							
C[S+]([O-])c1c(C#N)nn(-c2c(Cl)cc(C(F)(F)F)cc2Cl)c1NCc1cnccn1 (stereo not drawn) [Compound 1, 1-(2,6-dichloro-4-trifluoromethylphenyl)-4-methylsulfinyl-5-(pyrazin-2-ylmethylamino)pyrazole-3-carbonitrile]	100	100		0	100	100	100	100	100		
CSc1c(C#N)nn(-c2c(Cl)cc(C(F)(F)F)cc2Cl)c1NCc1cnccn1 [IV]	100	100	high systemic property	100					100		
N#Cc1nn(-c2c(Cl)cc(C(F)(F)F)cc2Cl)c(NCc2cnccn2)c1[S+]([O-])C(F)(F)F (stereo not drawn) [Compound 5, 1-(2,6-dichloro-4-trifluoromethylphenyl)-4-trifluoromethylsulfinyl-5-(pyrazin-2-ylmethylamino)pyrazole-3-carbonitrile]	100	100			100	100	100	100	100	100	100
1-(2,6-dichloro-4-trifluoromethylphenyl)-4-trifluoromethylsulfinyl-5-(1-oxy-pyridin-3-ylmethylamino)pyrazole-3-carbonitrile [Compound 14]	100	100		0	100	100	100	100	100	100	
N#Cc1nn(-c2c(Cl)cc(C(F)(F)F)cc2Cl)c(NCc2cnccn2)c1SC(F)(F)F [V]	80	95		100					55		
N#Cc1nn(-c2c(Cl)cc(C(F)(F)F)cc2Cl)c(N)c1[S+]([O-])C(F)(F)F (stereo not drawn) [I]	67	92	obviously inferior effect	100					33		
N#Cc1nn(-c2c(Cl)cc(C(F)(F)F)cc2Cl)c(NCc2cc[n+]([O-])cc2)c1SC(F)(F)F [III]	100	100		60					92		
